From US20260132132A1, “3A,4,5,6-TETRAHYDRO-1 H-PYRAZOLO[3,4-C]PYRIDIN-7(7AH)-ONE DERIVATIVES AS FACTOR XIIA INHIBITORS” (KALVISTA PHARMACEUTICALS LIMITED, priority 2022, published 2026) come the findings set out here.

pIC50: −log10 of the molar value.

In general, pIC50 refers to −log10 of the IC50, conventionally taken in molar units.

For the assay, the target named is T1, Human Factor XIIa (hFXIIa) (Homo sapiens, UniProt P00748).
T1 construct: purchased Enzyme Research Laboratories
T1 sequence (P00748 373-615 limits assumed): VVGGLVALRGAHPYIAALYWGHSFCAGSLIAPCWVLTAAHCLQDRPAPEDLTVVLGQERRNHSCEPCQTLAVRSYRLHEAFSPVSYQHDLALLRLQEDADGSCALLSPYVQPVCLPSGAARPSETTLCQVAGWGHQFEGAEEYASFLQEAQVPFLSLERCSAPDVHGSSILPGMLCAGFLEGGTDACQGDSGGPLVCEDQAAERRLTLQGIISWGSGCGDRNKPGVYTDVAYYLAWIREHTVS
T1 sequence (P00748 20-372 partner limits assumed): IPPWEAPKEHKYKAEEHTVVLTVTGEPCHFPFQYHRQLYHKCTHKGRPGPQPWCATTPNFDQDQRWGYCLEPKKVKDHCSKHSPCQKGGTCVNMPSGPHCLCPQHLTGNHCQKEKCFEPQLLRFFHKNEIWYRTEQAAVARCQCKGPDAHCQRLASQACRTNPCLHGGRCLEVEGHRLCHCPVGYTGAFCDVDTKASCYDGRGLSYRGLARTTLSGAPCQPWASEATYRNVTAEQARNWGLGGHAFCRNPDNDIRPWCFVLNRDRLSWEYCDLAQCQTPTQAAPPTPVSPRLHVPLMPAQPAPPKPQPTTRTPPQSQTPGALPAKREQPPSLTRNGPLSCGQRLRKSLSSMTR
Kind of assay: Determination of Human Factor XIIa (hFXIIa) inhibition, fluorogenic substrate IC50 assay. It is filed as biochemical. Particulars: fluorogenic substrate H-DPro-Phe-Arg-AFC at Km, 25° C., read-out: Human FXIIa IC50. The procedure:
Determination of Human Factor XIIa (hFXIIa) inhibition
The Km for the cleavage of the substrate by hFXIIa was determined by standard transformation of the Michaelis-Menten equation, with subsequent inhibition assays performed at substrate Km concentration.
With `CCN1CCc2c(COC)cc(N3CCc4c(C(=O)NCC5CC5)nn(-c5cccc(Cl)c5)c4C3=O)cc2C1` [Example 1169, 1-(3-Chlorophenyl)-N-(cyclopropylmethyl)-6-(2-ethyl-5-(methoxymethyl)-1,2,3,4-tetrahydroisoquinolin-7-yl)-7-oxo-4,5,6,7-tetrahydro-1H-pyrazolo[3,4-c]pyridine-3-carboxamide], the pIC50 was 6.52 to 7.00.

On to `Cc1cc(CNC(=O)c2nn(-c3cccc(Cl)c3)c3c2CCN(c2ccc4c(c2)CN(CCO)CC4)C3=O)ccn1` [Example 1171, 1-(3-chlorophenyl)-6-(2-(2-hydroxyethyl)-1,2,3,4-tetrahydroisoquinolin-7-yl)-N-((2-methylpyridin-4-yl)methyl)-7-oxo-4,5,6,7-tetrahydro-1H-pyrazolo[3,4-c]pyridine-3-carboxamide], for which the pIC50 was 7.00 to 8.00. As for `CCOC(=O)c1nn(-c2cccc(Cl)c2)c2c1CCN(c1cccc(N3CCCC3=O)c1)C2=O` [Example 1323, ethyl 1-(3-chlorophenyl)-7-oxo-6-(3-(2-oxopyrrolidin-1-yl)phenyl)-4,5,6,7-tetrahydro-1H-pyrazolo[3,4-c]pyridine-3-carboxylate], the figure is 5.52 to 6.00; as for `COc1ccc(CNC(=O)c2nn(-c3cccc(Cl)c3)c3c2CCN(c2cccc(CN4CCCCC4)c2)C3=O)cn1` [Example 1173, 1-(3-chlorophenyl)-N-((6-methoxypyridin-3-yl)methyl)-7-oxo-6-(3-(piperidin-1-ylmethyl)phenyl)-4,5,6,7-tetrahydro-1H-pyrazolo[3,4-c]pyridine-3-carboxamide], 6.52 to 7.00. For `Cc1cc(CNC(=O)c2nn(-c3cccc(Cl)c3)c3c2CCN(c2ccc4c(c2)C(=O)N(CCO)CC4)C3=O)n[nH]1` [Example 1255, 1-(3-chlorophenyl)-6-(2-(2-hydroxyethyl)-1-oxo-1,2,3,4-tetrahydroisoquinolin-7-yl)-N-((5-methyl-1H-pyrazol-3-yl)methyl)-7-oxo-4,5,6,7-tetrahydro-1H-pyrazolo[3,4-c]pyridine-3-carboxamide] the value was 6.52 to 7.00; for `CN1CCc2ccc(N3CCc4c(C(=O)NC5COCC5CO)nn(-c5cccc(Cl)c5)c4C3=O)cc2C1=O` (centres unmarked) [Example 1251, 1-(3-chlorophenyl)-N-(4-(hydroxymethyl)tetrahydrofuran-3-yl)-6-(2-methyl-1-oxo-1,2,3,4-tetrahydroisoquinolin-7-yl)-7-oxo-4,5,6,7-tetrahydro-1H-pyrazolo[3,4-c]pyridine-3-carboxamide], 6.00 to 6.52; for `COCCN(C)C(=O)c1cccc(N2CCc3c(C(=O)NCC4CC4)nn(-c4cccc(Cl)c4)c3C2=O)c1` [Example 1311, 1-(3-chlorophenyl)-N-(cyclopropylmethyl)-6-(3-((2-methoxyethyl)(methyl)carbamoyl)phenyl)-7-oxo-4,5,6,7-tetrahydro-1H-pyrazolo[3,4-c]pyridine-3-carboxamide], 5.00 to 5.52. As for `N#CCN1CCc2ccc(N3CCc4c(C(=O)NCC5CC5)nn(-c5cccc(Cl)c5)c4C3=O)cc2C1` [Example 1100, 1-(3-chlorophenyl)-6-(2-(cyanomethyl)-1,2,3,4-tetrahydroisoquinolin-7-yl)-N-(cyclopropylmethyl)-7-oxo-4,5,6,7-tetrahydro-1H-pyrazolo[3,4-c]pyridine-3-carboxamide], the figure is 5.52 to 6.00. As to `O=C(NCC1CC1)c1nn(-c2cccc(Cl)c2)c2c1CCN(c1ccc3c(c1)CN(C1CCOC1)CC3)C2=O` (centres unmarked) [Example 1115, 1-(3-chlorophenyl)-N-(cyclopropylmethyl)-7-oxo-6-(2-(tetrahydrofuran-3-yl)-1,2,3,4-tetrahydroisoquinolin-7-yl)-4,5,6,7-tetrahydro-1H-pyrazolo[3,4-c]pyridine-3-carboxamide], the pIC50 is 6.00 to 6.52. As for `CN1CCC(CN2CCc3c(C(=O)NCc4ccccc4)nn(-c4cccc(Cl)c4)c3C2=O)CC1` [Example 1016, N-Benzyl-1-(3-chlorophenyl)-6-((1-methylpiperidin-4-yl)methyl)-7-oxo-4,5,6,7-tetrahydro-1H-pyrazolo[3,4-c]pyridine-3-carboxamide], the figure is 4.40 to 5.00. For `CN1CCc2ccc(N3CCc4c(C(=O)NCC5CC5)nn(-c5csc(Cl)c5)c4C3=O)cc2C1=O` [Example 2015] the value was 5.52 to 6.00; for `CN1CCc2ccc(-n3cnc4c(C#N)nn(-c5cccc(Cl)c5)c4c3=O)cc2C1` [Example 3001, 1-(3-chlorophenyl)-6-(2-methyl-1,2,3,4-tetrahydroisoquinolin-7-yl)-7-oxo-6,7-dihydro-1H-pyrazolo[4,3-d]pyrimidine-3-carbonitrile], 6.00 to 6.52; for `O=C(NCC1CC1)c1nn(-c2cccc(Cl)c2)c2c1CCN(c1ccc3c(c1)CN(CC1CC1(F)F)CC3)C2=O` (centres unmarked) [Example 1097, 1-(3-chlorophenyl)-N-(cyclopropylmethyl)-6-(2-((2,2-difluorocyclopropyl)methyl)-1,2,3,4-tetrahydroisoquinolin-7-yl)-7-oxo-4,5,6,7-tetrahydro-1H-pyrazolo[3,4-c]pyridine-3-carboxamide], 5.52 to 6.00. As for `CN1CCc2ncc(N3CCc4c(C(=O)NCC5CC5)nn(-c5cccc(Cl)c5)c4C3=O)cc2C1` [Example 1040, 1-(3-Chlorophenyl)-N-(cyclopropylmethyl)-6-(6-methyl-5,6,7,8-tetrahydro-1,6-naphthyridin-3-yl)-7-oxo-4,5,6,7-tetrahydro-1H-pyrazolo[3,4-c]pyridine-3-carboxamide], the figure is 5.52 to 6.00; as for `O=C(NCc1ncccc1Cl)c1nn(-c2cccc(Cl)c2)c2c1CCN(c1ccc3c(c1)CN(CCO)CC3)C2=O` [Example 1170, 1-(3-chlorophenyl)-N-((3-chloropyridin-2-yl)methyl)-6-(2-(2-hydroxyethyl)-1,2,3,4-tetrahydroisoquinolin-7-yl)-7-oxo-4,5,6,7-tetrahydro-1H-pyrazolo[3,4-c]pyridine-3-carboxamide], 7.00 to 8.00.

As for `CCOC(=O)c1nn(-c2cc(C)cc(CN)c2)c2c1CCN(c1ccc3c(c1)C(=O)N(C)CC3)C2=O` [Example 2022, ethyl 1-(3-(aminomethyl)-5-methylphenyl)-6-(2-methyl-1-oxo-1,2,3,4-tetrahydroisoquinolin-7-yl)-7-oxo-4,5,6,7-tetrahydro-1H-pyrazolo[3,4-c]pyridine-3-carboxylate], the pIC50 was 7.00 to 8.00. As for `CC1CCCN1Cc1cccc(N2CCc3c(C(=O)NCc4ccccc4)nn(-c4cccc(Cl)c4)c3C2=O)c1` (centres unmarked) [Example 1039, N-benzyl-1-(3-chlorophenyl)-6-(3-((2-methylpyrrolidin-1-yl)methyl)phenyl)-7-oxo-4,5,6,7-tetrahydro-1H-pyrazolo[3,4-c]pyridine-3-carboxamide], the pIC50 is 6.00 to 6.52. For `CC(=O)NCCN1CCc2ccc(N3CCc4c(C(=O)NCC5CC5)nn(-c5cccc(Cl)c5)c4C3=O)cc2C1` [Example 1081, 6-(2-(2-acetamidoethyl)-1,2,3,4-tetrahydroisoquinolin-7-yl)-1-(3-chlorophenyl)-N-(cyclopropylmethyl)-7-oxo-4,5,6,7-tetrahydro-1H-pyrazolo[3,4-c]pyridine-3-carboxamide] the value was 6.00 to 6.52; for `Cc1cccc(-n2nc(C(=O)NCC3CC3)c3c2C(=O)N(c2ccc4c(c2)C(=O)N(C)CC4)CC3)c1` [Example 2011, N-(cyclopropylmethyl)-6-(2-methyl-1-oxo-1,2,3,4-tetrahydroisoquinolin-7-yl)-7-oxo-1-(m-tolyl)-4,5,6,7-tetrahydro-1H-pyrazolo[3,4-c]pyridine-3-carboxamide], 6.00 to 6.52.

With `Cc1cccnc1CNC(=O)c1nn(-c2cccc(Cl)c2)c2c1CCN(c1ccc3c(c1)CN(CCO)CC3)C2=O` [Example 1136, 1-(3-chlorophenyl)-6-(2-(2-hydroxyethyl)-1,2,3,4-tetrahydroisoquinolin-7-yl)-N-((3-methylpyridin-2-yl)methyl)-7-oxo-4,5,6,7-tetrahydro-1H-pyrazolo[3,4-c]pyridine-3-carboxamide], the pIC50 was 7.00 to 8.00.

As for `O=C(NCc1ccccc1)c1nn(-c2cccc(Cl)c2)c2c1CCN(c1ccc3c(c1)CN(CCO)CC3)C2=O` [Example 1107, N-benzyl-1-(3-chlorophenyl)-6-(2-(2-hydroxyethyl)-1,2,3,4-tetrahydroisoquinolin-7-yl)-7-oxo-4,5,6,7-tetrahydro-1H-pyrazolo[3,4-c]pyridine-3-carboxamide], the pIC50 is 7.00 to 8.00. As for `CCOC(=O)c1nn(-c2cccc(Cl)c2)c2c1CCN(c1cccc(N3CC(C(F)(F)F)CC3=O)c1)C2=O` (centres unmarked) [Example 1405, ethyl 1-(3-chlorophenyl)-7-oxo-6-(3-(2-oxo-4-(trifluoromethyl)pyrrolidin-1-yl)phenyl)-4,5,6,7-tetrahydro-1H-pyrazolo[3,4-c]pyridine-3-carboxylate], the pIC50 was 4.40 to 5.00.

In the case of `CCN1CCc2cc(C)c(N3CCc4c(C(=O)NCC5CC5)nn(-c5cccc(Cl)c5)c4C3=O)cc2C1` [Example 1054, 1-(3-Chlorophenyl)-N-(cyclopropylmethyl)-6-(2-ethyl-6-methyl-1,2,3,4-tetrahydroisoquinolin-7-yl)-7-oxo-4,5,6,7-tetrahydro-1H-pyrazolo[3,4-c]pyridine-3-carboxamide], the pIC50 is 6.52 to 7.00.
